# Data published in patent US20090142330A1, “Use of inactive-plasmin to treat chronic inflammatory disease and tumors” (The Government of the United States of America as …, priority 2007, published 2009).
# Test system: MMP-1 production by monocytes
# Experiment: MMP-1 protein in monocyte conditioned media, Western blot
# Assay type: cell-based, human
# Excerpt: Reagents. High molecular weight urokinase plasminogen activator (HMW-uPA), low molecular weight uPA (LMW-uPA), amino-terminal fragment-uPA (ATF-uPA) and α2-antiplasmin were obtained from American Diagnostica Inc. (Stamford, Conn.). […] LPS Escherichia coli 05:B55 was purchased from Sigma-Aldrich (St. Louis, Mo.). ERK1/2/phospho-ERK1/2 and p38/phospho-p38 antibodies were from Cell Signaling Technology (Beverly, Mass.). MMP-1 antibodies used were rabbit polyclonal antibodies against MMP-1 (provided by Dr. Henning Birkedal-Hansen, NIDCR/NIH) and a mouse anti-human MMP-1 monoclonal antibody (Chemicon International, Inc., Temecula, Calif.). Rabbit anti-COX-2 antibodies were obtained from Cayman Chemical Company (Ann Arbor, Mich.) and mouse anti-β-actin antibodies were from Chemicon International, Inc., Temecula, Calif.). Purification and culture of human monocytes. Human peripheral blood cells were obtained by leukapheresis of non-disease subjects. The monocyte fraction was purified by counter-flow centrifugal elutriation as previously described (Wahl et al., Cell Immunol. 85: 373-383, 1984; and Wahl et al., “In Current Protocols in Immunology,” eds. John Wiley & Sons, Inc. NY. Vol. 2: 7.6A.1-7.6A.10., 2005) and contained greater than 90% monocytes as determined by morphology and flow cytometry. Monocytes were cultured in serum-free Dulbecco Modified Eagle's Medium (DMEM; Cambrex, Walkersville, Md.) supplemented with 2 mM L-glutamine (Mediatech, Herndon, Va.) and 10 μg/ml gentamycin (Cambrex, Walkersville, Md.). Western blot analysis of MMP-1, MAPKs and COX-2. For MMP-1 determination, purified monocytes were cultured at a density of 5×10^6/ml of DMEM in 12 well polystyrene plates (Corning Incorporated Life Sciences, Lowell, Mass.). After 36 to 48 hours of treatment with reagents, the conditioned media were centrifuged and collected. Bovine serum albumin (BSA; 40 μg/ml) was added to the culture supernatants prior to the precipitation of the proteins with cold ethanol (final concentration, 60%) for at least 15 min at −70° C. The proteins were pelleted by microcentrifuging at 20,800×g for 12 min, washed with ethanol, and lyophilized by rotary evaporation. The lyophilized proteins were resuspended in sodium dodecyl sulfate (SDS)-Laemmli buffer [500 mM Tris-HCl (pH 6.8)/10% SDS/0.01% bromophenol-blue/20% glycerol], reduced with 5% β-mercaptoethanol, heated for 4 min at 100° C., and electrophoresed on a 10 or 12% Tris-glycine gel in SDS running buffer [25 mM Tris-HCl (pH 8.3)/192 mM glycine/[…]]. The proteins were transferred onto 0.45 μm nitrocellulose in a buffer containing 25 mM Tris-HCl (pH 8.3)/192 mM glycine/20% methanol and blocked with 50 mM Tris-HCl (pH 7.5)/150 mM NaCl (TBS) containing 5% nonfat dry milk for at least 1 hour. The blots were then incubated overnight with antibodies against MMP-1.
# Western blots for MMP-1, MAPKs and COX-2 were incubated overnight with primary antibodies, washed and analyzed by the addition of Alexa Fluor 680 goat anti-rabbit or Alexa Fluor 750 goat anti-mouse antibodies (Molecular Probes® Inc., Eugene, Oreg.) and the infrared fluorescence detected with the Odyssey infrared imaging system (LI-COR, Lincoln, Nebr.). Densitometry analysis of the bands on the Western blots was determined with the LI-COR software analysis program or the ImageQuant software analysis program (Amersham Biosciences, Piscataway, N.J.).
substance,measurement,setting,value
plasmin,protein levels of MMP-1,"LPS (25 ng/ml) stimulated monocytes, indicated concentrations, FIG. 1A / 2B",dose-dependent increase
same,induction of MMP-1 protein,"unstimulated (control) monocytes, no LPS",did not induce MMP-1
